{
  "source": "patent US8153560B2",
  "about": "“Pesticidal active mixtures comprising aminothiazoline compounds” (BASF SE, priority 2007, dated 2012)",
  "key": {"[1]": {"test_system": "green peach aphid (Myzus persicae)", "assay": "Test B.2: control of green peach aphid through systemic means, artificial diet under membrane", "format": "in vivo", "description": "For evaluating control of green peach aphid (Myzus persicae) through systemic means the test unit consisted of 96-well-microtiter plates containing liquid artificial diet under an artificial membrane.\nThe compounds or mixtures were formulated using a solution containing 75 wt % water and 25 wt % DMSO. Different concentrations of formulated compounds or mixtures were pipetted into the aphid diet, using a custom built pipetter, at two replications.\n(§1) For experimental mixtures in these tests identical volumes of both mixing partners at the desired concentrations respectively, were mixed together.\nAfter application, 5-8 adult aphids were placed on the artificial membrane inside the microtiter plate wells. The aphids were then allowed to suck on the treated aphid diet and incubated at 23±1° C., 50±5% RH for 3 days. Aphid mortality and fecundity was then visually assessed."}, "[2]": {"test_system": "vetch aphid (Megoura viciae)", "assay": "Test B.1: control of vetch aphid on broad bean leaf disks, contact or systemic", "format": "in vivo", "method": "For evaluating control of vetch aphid (Megoura viciae) through contact or systemic means the test unit consisted of 24-well-microtiter plates containing broad bean leaf disks.\nThe compounds or mixtures were formulated using a solution containing 75 wt % water and 25 wt % DMSO. Different concentrations of formulated compounds or mixtures were sprayed onto the leaf disks at 2.5 μl, using a custom built micro atomizer, at two replications.\nas §1\nAfter application, the leaf disks were air-dried and 5-8 adult aphids placed on the leaf disks inside the microtiter plate wells. The aphids were then allowed to suck on the treated leaf disks and incubated at 23±1° C., 50±5% RH (relative humidity) for 5 days. Aphid mortality and fecundity was then visually assessed."}, "[3]": {"conditions": "mixing partner alone, ppm 0.4 + 0, 3 days"}, "[4]": {"conditions": "mixing partner alone, ppm 40 + 0, 3 days"}, "[5]": {"conditions": "mixing partner alone, ppm 0.08 + 0, 5 days"}, "[6]": {"conditions": "mixing partner alone, ppm 0.08 + 0, 3 days"}},
  "data": [
    {"molecule": "CC1(C)C(C=C(Cl)Cl)C1C(=O)OC(C#N)c1cccc(Oc2ccccc2)c1", "note": "(stereo not drawn) [Alphacypermethrin, alpha-cypermethrin]", "values": [
      {"measurement": "Average Control %", "setting": "[1]; mixing partner alone, ppm 10 + 0, 3 days", "result": 50, "unit": "%"}
    ]},
    {"molecule": "Cc1cc(C)cc(CC(NC2=NCCS2)c2cccc(C)c2C)c1", "note": "(stereo not drawn) [C.33, (4,5-Dihydro-thiazol-2-yl)-[2-(3,5-dimethyl-phenyl)-1-(2,3-dimethyl-phenyl)-ethyl]-amine]", "values": [
      {"measurement": "Average Control %", "setting": "[2]; compound C.33 alone, ppm 0 + 0.8, 5 days", "result": 0, "unit": "%"},
      {"measurement": "Average Control %", "setting": "[1]; compound C.33 alone, ppm 0 + 0.8, 3 days", "result": 0, "unit": "%"},
      {"measurement": "Average Control %", "setting": "[1]; compound C.33 alone, ppm 0 + 4, 3 days", "result": 0, "unit": "%"},
      {"measurement": "Average Control %", "setting": "[1]; compound C.33 alone, ppm 0 + 20, 3 days", "result": 0, "unit": "%"},
      {"measurement": "Average Control %", "setting": "[1]; compound C.33 alone, ppm 0 + 20, 3 days, listed as test compound", "result": 50, "unit": "%"}
    ]},
    {"molecule": "CNC(=O)c1cc(Cl)cc(C)c1NC(=O)c1cc(Br)nn1-c1ncccc1Cl", "note": "[Chlorantraniliprole, chlorantraniliprole]", "values": [
      {"measurement": "Average Control %", "setting": "[1]; [3]", "result": 50, "unit": "%"}
    ]},
    {"molecule": "N#Cc1nn(-c2c(Cl)cc(C(F)(F)F)cc2Cl)c(N)c1[S+]([O-])C(F)(F)F", "note": "(stereo not drawn) [Fipronil, fipronil]", "values": [
      {"measurement": "Average Control %", "setting": "[2]; mixing partner alone, ppm 2 + 0, 5 days", "result": 25, "unit": "%"},
      {"measurement": "Average Control %", "setting": "[1]; [3]", "result": 0, "unit": "%"}
    ]},
    {"molecule": "CC1=NNC(=O)N(/N=C/c2cccnc2)C1", "note": "[Pymetrozine, pymetrozine]", "values": [
      {"measurement": "Average Control %", "setting": "[1]; [4]", "result": 50, "unit": "%"}
    ]},
    {"molecule": "CC(C)(C)c1ccc(CSc2cnn(C(C)(C)C)c(=O)c2Cl)cc1", "note": "[Pyridaben, pyridaben]", "values": [
      {"measurement": "Average Control %", "setting": "[1]; [4]", "result": 0, "unit": "%"}
    ]},
    {"molecule": "CN1COCN(Cc2cnc(Cl)s2)/C1=N\\[N+](=O)[O-]", "note": "[Thiamethoxam, thiamethoxam]", "values": [
      {"measurement": "Average Control %", "setting": "[2]; [5]", "result": 0, "unit": "%"},
      {"measurement": "Average Control %", "setting": "[1]; [6]", "result": 0, "unit": "%"}
    ]},
    {"molecule": "abamectin", "values": [
      {"measurement": "Average Control %", "setting": "[2]; [5]", "result": 0, "unit": "%"},
      {"measurement": "Average Control %", "setting": "[1]; [6]", "result": 0, "unit": "%"}
    ]}
  ]
}
